Experimental data as given in patent US9988430B2, “Stable GLP-1 based GLP-1/glucagon receptor co-agonists” (Novo Nordisk A/S, priority 2014, dated 2018).
*1 amine or outer side, *2 acyl side, *3 side chain or, on linkers, in order; H or OH if unused. Where a SMILES comes first, the peptide text is derived from it. Bridges are numbered along the chain shown (N, C = ends). Roman numbers before positions name the chains, in order. Side-chain parts run from the residue outwards. [ ]: non-standard residue; d: D form. The star is where a group is joined. C18 diacid = O=C(O)CCCCCCCCCCCCCCCCC(=O)*; γGlu = O=C(O)[C@H](CCC(=O)[*:2])N[*:1]; Desaminohistidyl = O=C(CCc1c[nH]cn1)*; Ac4c = NC1(C(=O)O)CCC1; AEEA = NCCOCCOCC(=O)O

How the values were obtained:
[1] = Assay (V): chemical stability assessment by RP-UPLC; format: physicochemical; conditions: 14 days at 37° C. in phosphate buffer (pH 7.3)
Method in brief: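 Lyophilized peptide dissolved in 8 mM phosphate pH 8.6, adjusted to pH 7.3, final 333 μM, held 14 days at 5° C and 37° C. Purity is main-peak area % by RP-UPLC with UV detection at 215 nm. Degradation is the 5° C minus 37° C purity difference divided by the 5° C purity.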

[2] = molecular target: T1, human GLP-1 receptor (Homo sapiens, UniProt P43220); assay: Assay (I)(a): GLP-1 receptor potency, CRE luciferase reporter gene assay in BHK cells; format: cell-based; conditions: BHK cells expressing human GLP-1 receptor, read-out: EC50 GLP-1R
T1 construct: expressed in transfected cells; host or cells: membranes of BHK cells, parent line BHKTS13, clone FCW467-12A
Method in brief: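 BHK cells (clone FCW467-12A/KZ10-1), 5×10EE3/well, exposed 3 h at 37° C to compound at 1×10EE-13 to 1×10EE-6 M final in medium with 2% ovalbumin and 0.2% Pluronic F-68. Luciferase luminescence read; EC50 (pM) from four-parameter fit.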

T1 sequence (P43220 24-463): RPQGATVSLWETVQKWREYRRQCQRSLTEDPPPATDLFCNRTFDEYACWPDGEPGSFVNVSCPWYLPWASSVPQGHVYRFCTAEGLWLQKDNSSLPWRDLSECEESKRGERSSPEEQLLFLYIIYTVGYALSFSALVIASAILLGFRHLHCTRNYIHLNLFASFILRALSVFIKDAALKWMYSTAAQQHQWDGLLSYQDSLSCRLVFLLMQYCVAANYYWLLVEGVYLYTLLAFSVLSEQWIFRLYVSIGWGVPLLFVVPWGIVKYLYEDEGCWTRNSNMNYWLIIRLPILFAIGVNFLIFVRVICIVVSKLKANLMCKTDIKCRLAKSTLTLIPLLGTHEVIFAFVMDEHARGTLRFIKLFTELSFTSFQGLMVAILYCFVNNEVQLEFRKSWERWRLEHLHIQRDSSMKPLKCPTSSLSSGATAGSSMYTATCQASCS

Structure (SMILES)	Chemical stability: Chemical degradation over 14 days at 37° C. [1]	EC50 [2]
CC[C@H](C)[C@H](NC(=O)[C@H](Cc1ccccc1)NC(=O)[C@H](CCC(=O)O)NC(=O)[C@H](CCCNC(=N)N)NC(=O)[C@H](C)NC(=O)[C@H](C)NC(=O)[C@H](CCCNC(=N)N)NC(=O)CNC(=O)[C@H](CCC(=O)O)NC(=O)[C@H](CC(C)C)NC(=O)[C@H](Cc1ccc(O)cc1)NC(=O)[C@H](CCCCN)NC(=O)[C@H](CO)NC(=O)[C@@H](NC(=O)[C@H](CC(=O)O)NC(=O)[C@H](CO)NC(=O)[C@@H](NC(=O)[C@H](Cc1ccccc1)NC(=O)[C@@H](NC(=O)CNC(=O)[C@H](Cc1c[nH]cn1)NC(=O)[C@H](C)NC(=O)CCc1c[nH]cn1)[C@@H](C)O)[C@@H](C)O)C(C)C)C(=O)N[C@@H](C)C(=O)N[C@@H](Cc1c[nH]c2ccccc12)C(=O)N[C@@H](CC(C)C)C(=O)N[C@@H](CC(C)C)C(=O)N[C@@H](CCCCNC(=O)COCCOCCNC(=O)COCCOCCNC(=O)CC[C@H](NC(=O)CC[C@H](NC(=O)CC[C@H](NC(=O)CCCCCCCCCCCCCCCCC(=O)O)C(=O)O)C(=O)O)C(=O)O)C(=O)N[C@H](C(N)=O)[C@@H](C)O [Example 10, N^ε34-[2-[2-[2-[[2-[2-[2-[[(4S)-4-carboxy-4-[[(4S)-4-carboxy-4-[[(4S)-4-carboxy-4-(17-carboxyheptadecanoylamino)butanoyl]amino]butanoyl]amino]butanoyl]amino]ethoxy]ethoxy]acetyl]amino]ethoxy]ethoxy]acetyl]-[Imp7,His9,Lys18,Arg23,Arg26,Leu33,Thr35]-GLP-1-(7-35)-peptide amide] (Desaminohistidyl-AHGTFTSDVSKYLEGRAAREFIAWLLK([AEEA-AEEA-γGlu-γGlu-γGlu-C18 diacid])T-NH2)	2.0%	8 pM
CC[C@H](C)[C@H](NC(=O)[C@H](Cc1ccccc1)NC(=O)[C@H](CCC(=O)O)NC(=O)[C@H](CCCNC(=N)N)NC(=O)[C@H](C)NC(=O)[C@H](C)NC(=O)[C@H](CCC(N)=O)NC(=O)[C@H](CCC(=O)O)NC(=O)[C@H](CCC(=O)O)NC(=O)[C@H](CC(C)C)NC(=O)[C@H](Cc1ccc(O)cc1)NC(=O)[C@H](CCCCN)NC(=O)[C@H](CO)NC(=O)[C@@H](NC(=O)[C@H](CC(=O)O)NC(=O)[C@H](CO)NC(=O)[C@@H](NC(=O)[C@H](Cc1ccccc1)NC(=O)[C@@H](NC(=O)CNC(=O)[C@H](Cc1c[nH]cn1)NC(=O)C1(NC(=O)CCc2c[nH]cn2)CCC1)[C@@H](C)O)[C@@H](C)O)C(C)C)C(=O)N[C@@H](C)C(=O)N[C@@H](Cc1c[nH]c2ccccc12)C(=O)N[C@@H](CC(C)C)C(=O)N[C@@H](CC(C)C)C(=O)N[C@@H](CCCCNC(=O)CNC(=O)[C@H](CO)NC(=O)[C@H](CCC(=O)O)NC(=O)CNC(=O)[C@H](CO)NC(=O)CC[C@H](NC(=O)CC[C@H](NC(=O)CCCCCCCCCCCCCCCCC(=O)O)C(=O)O)C(=O)O)C(=O)N[C@H](C(N)=O)[C@@H](C)O [Example 9, N^ε34-[2-[[(2S)-2-[[(2S)-4-carboxy-2-[[2-[[(2S)-2-[[(4S)-4-carboxy-4-[[(4S)-4-carboxy-4-(17-carboxyheptadecanoylamino)butanoyl]amino]butanoyl]amino]-3-hydroxypropanoyl]amino]acetyl]amino]butanoyl]amino]-3-hydroxypropanoyl]amino]acetyl]-[Imp7,Acb8,His9,Lys18,Glu22,Arg26,Leu33,Thr35]-GLP-1-(7-35)-peptide amide] (I: Desaminohistidyl-[Ac4c]HGTFTSDVSKYLEEQAAREFIAWLLKT-NH2 / II: {C18 diacid-γGlu-γGlu}-SGESG; amide I:27-II:C)	0.2%	5 pM
